Experimental data taken from publication PMC8754229 (Journal of Virology, 2022).

Key:
[1] = statement in Discussion, no test described, ref not given; cited from earlier work
SARS-CoV-2 M^pro = SARS-CoV-2 M^pro (Severe acute respiratory syndrome coronavirus 2, UniProt P0DTD1); format: biochemical

Compound | Cytotoxicity (in words) [1] | Inhibition against M^pro (in words) (SARS-CoV-2 M^pro)
CC(C)=CC[C@@H](O)C1=CC(=O)c2c(O)ccc(O)c2C1=O [Shikonin] | strong cytotoxicity | 
CC(=O)O[C@H]1[C@H](OCCc2ccc(O)c(O)c2)O[C@H](CO[C@@H]2O[C@H](CO)[C@@H](O)[C@H](O)[C@H]2O)[C@@H](OC(=O)/C=C/c2ccc(O)c(O)c2)[C@@H]1OC[C@@H]1O[C@@H](C)[C@H](O)[C@@H](O)[C@H]1O [tubuloside A] |  | none of them showed potent inhibition
maltopentaose |  | none of them showed potent inhibition
